Data set [1] is described as follows: Dynamic moisture sorption (DMS). It counts as physicochemical. Particulars: crystalline form. On the procedure:
Samples are prepared for dynamic moisture-sorption analysis by placing ˜5 mg to ˜20 mg of compound in a tarred sample holder on the VTI balance. The instrument is a dynamic moisture-sorption analyzer, VTI Corporation, SGA-100. A drying step is run at 40° C. and ˜1% RH for 1 h. The isotherm temperature is 25° C. A % weight change over 10 min (5 weight readings) of dm/dt=0.010 or 2 h, whichever occurs first, is required before continuing to the next step. The water content of the sample equilibrated as described above was determined from 30% RH to 90% RH and then back down to 10% RH.

For data set [2], the target named is T1, S1P1 receptor (Homo sapiens, UniProt P21453).
T1 construct: expressed in transfected cells; host or cells: CHO-K1 (ATCC CCL-61), stably transfected
In words: HTRF assay for direct cAMP measurement. It counts as cell-based. The settings on record: recombinant CHO-K1 cells stably transfected with S1P1; agonist detected as decrease of cAMP concentration. An excerpt:
Compounds were screened for agonists of the S1P1 receptor (e.g., human S1P1 receptor) using the HTRF® assay for direct cAMP measurement (Gabriel et al., Assay and Drug Development Technologies, 1:291-303, 2003) and recombinant CHO-K1 cells stably transfected with S1P1. CHO-K1 cells were obtained from ATCC® (Manassas, Va.; Catalog #CCL-61). An agonist of the S1P1 receptor was detected in the HTRF® assay for direct cAMP measurement as a compound which decreased cAMP concentration. HTRF® assay also was used to determine EC50 values for S1P1 receptor agonists.
HTRF® assay kit was purchased from Cisbio-US, Inc. (Bedford, Mass.; Catalog #62AM4PEC). […] The specific signal (i.e., fluorescence resonance energy transfer, FRET) is inversely proportional to the concentration of unlabeled cAMP in the standard or sample.
The fluorescence ratio (665 nm/620 nm) of the standards (0.17 to 712 nM cAMP) included in the assay was calculated and used to generate a cAMP standard curve according to the kit manufacturer's instructions. The fluorescence ratio of the samples (test compound or compound buffer) was calculated and used to deduce respective cAMP concentrations by reference to the cAMP standard curve. […]
HTRF® readout was accomplished using a PHERAstar (BMG LABTECH Inc., Durham, N.C.) or EnVision™ (PerkinElmer, Fremont Calif.) microplate reader.
Background: Time-resolved FRET reads energy transfer from a long-lived donor to a nearby acceptor.

Data set [3] relates to Male Sprague-Dawley rats. In words: Rat Peripheral Lymphocyte Lowering (PLL) assay. It counts as in vivo. Particulars: 1.0 mg/kg oral dose in 0.5% methyl cellulose in water; 5 h post-dose; vs vehicle; FIG. 16. As to the method:
Male Sprague-Dawley rats (Charles River Laboratories, Hollister, Calif.) were housed and maintained in humidity (40 to 60%) and temperature (68 to 72° F.) controlled facility on a 12 h: 12 h light/dark cycle (lights on at 6:30 am) with free access to food (Harlan Teklad, Orange, Calif., Rodent Diet 8604) and water. Rats were allowed (approximately) one week of habituation to the animal facility before testing.
Rats were given a 1.0 mg/kg oral dose of (R)-2-(9-chloro-7-(4-isopropoxy-3-(trifluoromethyl)benzyloxy)-2,3-dihydro-1H-pyrrolo[1,2-a]indol-1-yl)acetic acid or dosing vehicle (0.5% methyl cellulose in water) in a total volume of 1 mL/kg. Peripheral blood samples were collected at 5 h post-dose. Blood was collected via indwelling catheter. A complete cell count (CBC), including lymphocyte count, was obtained using a CELL-DYN® 3700 (Abbott Laboratories, Abbott Park, Ill.) instrument. Results are presented in FIG. 16, in which peripheral blood lymphocyte (PBL) count is shown for the 5 hour group.

One compound from patent US20150284399A1, “PROCESSES FOR THE PREPARATION OF S1P1 RECEPTOR MODULATORS AND CRYSTALLINE FORMS THEREOF” (Arena Pharmaceuticals, Inc., priority 2010, published 2015) can be followed below.

Broadly, the EC50 is the concentration giving half of the maximal effect.

T1 sequence (P21453 whole entry): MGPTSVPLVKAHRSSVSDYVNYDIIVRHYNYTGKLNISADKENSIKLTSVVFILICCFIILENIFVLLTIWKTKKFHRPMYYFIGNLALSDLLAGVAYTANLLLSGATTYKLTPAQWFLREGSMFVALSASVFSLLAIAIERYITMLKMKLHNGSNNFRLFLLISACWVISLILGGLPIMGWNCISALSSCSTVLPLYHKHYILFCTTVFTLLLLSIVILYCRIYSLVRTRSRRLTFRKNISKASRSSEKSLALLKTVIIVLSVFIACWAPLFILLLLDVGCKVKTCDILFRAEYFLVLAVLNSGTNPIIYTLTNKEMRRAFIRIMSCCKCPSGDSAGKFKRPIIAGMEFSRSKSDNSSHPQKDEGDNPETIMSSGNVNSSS

Regarding `CC(C)Oc1ccc(COc2ccc3c(c2)c(Cl)c2n3CC[C@@H]2CC(=O)O)cc1C(F)(F)F` [(R)-2-(9-chloro-7-(4-isopropoxy-3-(trifluoromethyl)benzyloxy)-2,3-dihydro-1H-pyrrolo[1,2-a]indol-1-yl)acetic acid], in data set [1] (10% RH to 90% RH at 25° C.), the “hygroscopicity (DMS)” value is reported as “non-hygroscopic”. Also, the “DMS weight gain over the full range of % RH tested” value in data set [1] (10% RH to 90% RH at 25° C., listed as Crystalline form of (R)-2-(9-chloro-7-(4-isopropoxy-3-(trifluoromethyl)benzyloxy))) is recorded as “FIG. 3: gains less than about 0.1% weight over the full range”; in data set [1] (10% RH to 90% RH at 25° C., listed as crystalline form of (R)-2-(9-chloro-7-(4-isopropoxy-3-(trifluoromethyl)benzyloxy))), “less than 0.1 % weight”. For the same compound, in data set [1] (adsorption phase of the DMS cycle at about 70% RH), the “DMS maximum weight gain” value is reported as “about 0.06%”. The EC50 in data set [2] stood at 28 pM. In addition, the “peripheral blood lymphocyte (PBL) lowering (lymphopenia)” value in data set [3] is given as “exhibited activity for inducing PBL lowering (lymphopenia)”.
